Test results reported in patent US20240158348A1, “HERBICIDAL CYCLIC AMIDES N-SUBSTITUTED WITH A HALOALKYLSULFONYLANILIDE GROUP” (FMC Corporation, priority 2021, published 2024).

Key:
Type in all cases: in vivo
[1] = test system: corn (Zea mays); assay: Test C preemergence, corn; settings: 0 is no effect, 100 is complete control
Outline: (§1)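 Steps: sow in loam soil blended with sand; treat soil preemergence by directed spray, or treat young plants (2–10 cm, one to two leaves) postemergence; hold in greenhouse 10 or 12 days; rate injury visually relative to untreated controls on a 0–100 scale.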

[2] = test system: kochia (Bassia scoparia); assay: Test C preemergence, kochia; settings: 0 is no effect, 100 is complete control
Outline: (§2)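 Pre: soil sprayed at seeding. Post: seedlings treated at 1–2 leaves (2–10 cm). Vehicle non-phytotoxic solvent mix with surfactant; loam–sand medium; greenhouse; visual injury read at 10 or 12 days, scale 0–100.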

[3] = test system: ragweed (common ragweed, Ambrosia artemisiifolia); assay: Test C postemergence, ragweed; settings: for Ragweed plant response rating: visual injury, 0 to 100 scale (0 no effect, 100 complete control); for Plant response rating (0 to 100 scale), Ragweed: 0 is no effect, 100 is complete control
Outline: as §2

[4] = test system: barnyardgrass (Echinochloa crusgalli); assay: Test D flooded paddy test, barnyardgrass; set-up: key: 0 = no effect, 100 = complete control; settings: 250 g ai/ha, Flood; applied to paddy water at 2-leaf stage; visual rating after 13 days; scale 0 (no effect) to 100 (complete control)
Outline: (§3)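 2-leaf plants; flood 3 cm over soil; cpd into paddy water; depth maintained; greenhouse 13 d; visual rating vs controls, 0 = no effect, 100 = complete control; dash = no result.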

[5] = test system: goosegrass (Eleusine indica); assay: Test C preemergence, goosegrass; settings: 0 is no effect, 100 is complete control
Outline: as §1

[6] = test system: foxtail, giant (giant foxtail, Setaria faberi); assay: Test C postemergence, giant foxtail; settings: for Foxtail, Giant plant response rating: visual injury, 0 to 100 scale (0 no effect, 100 complete control); for Plant response rating (0 to 100 scale), Foxtail, Giant: 0 is no effect, 100 is complete control
[7] = test system: horseweed (Erigeron canadensis); assay: Test C postemergence, horseweed; settings: for Horseweed plant response rating: 31 g ai/ha Postemergence, visual injury, 0 to 100 scale (0 no effect, 100 complete control); for Plant response rating (0 to 100 scale), Horseweed: 125 g ai/ha Postemergence, 0 is no effect, 100 is complete control
Outline: as §2

[8] = test system: kochia (Bassia scoparia); assay: Test C postemergence, kochia; settings: for Kochia plant response rating: visual injury, 0 to 100 scale (0 no effect, 100 complete control); for Plant response rating (0 to 100 scale), Kochia: 0 is no effect, 100 is complete control
Outline: as §2

[9] = test system: rice (Oryza sativa); assay: Test D flooded paddy test, rice; set-up: key: 0 = no effect, 100 = complete control; settings: 250 g ai/ha, Flood; applied to paddy water at 2-leaf stage; visual rating after 13 days; scale 0 (no effect) to 100 (complete control)
Outline: as §3

## COC(=O)N(c1cc(N2CCC(OC3CC3)C2=O)c(C)cc1C)S(=O)(=O)C(F)(F)F (stereo not shown) [Compound 16]
[1]; 31 g ai/ha Preemergence
  Plant response rating (0 to 100 scale), Corn: 0
[1]; 125 g ai/ha Preemergence
  Plant response rating (0 to 100 scale), Corn: 0
[2]; 31 g ai/ha Preemergence
  Plant response rating (0 to 100 scale), Kochia: 0
[2]; 125 g ai/ha Preemergence
  Plant response rating (0 to 100 scale), Kochia: 0
[3]; 31 g ai/ha Postemergence
  Ragweed plant response rating: 80
[3]; 125 g ai/ha Postemergence
  Plant response rating (0 to 100 scale), Ragweed: 90
[4]
  Plant response rating, Barnyardgrass: 0
[5]; 31 g ai/ha Preemergence
  Plant response rating (0 to 100 scale), Goosegrass: 0
[5]; 125 g ai/ha Preemergence
  Plant response rating (0 to 100 scale), Goosegrass: 0
[6]; 31 g ai/ha Postemergence
  Foxtail, Giant plant response rating: 0
[6]; 125 g ai/ha Postemergence
  Plant response rating (0 to 100 scale), Foxtail, Giant: 0
[7]
  Horseweed plant response rating: 0
  Plant response rating (0 to 100 scale), Horseweed: 30
[8]; 31 g ai/ha Postemergence
  Kochia plant response rating: 20
[8]; 125 g ai/ha Postemergence
  Plant response rating (0 to 100 scale), Kochia: 10
[9]
  Plant response rating, Rice: 0

## CC(=O)N(c1cc(N2CCC(OC3CC3)C2=O)c(C)cc1C)S(=O)(=O)C(F)(F)F (stereo not shown) [Compound 17]
[1]; 31 g ai/ha Preemergence
  Plant response rating (0 to 100 scale), Corn: 70
[1]; 125 g ai/ha Preemergence
  Plant response rating (0 to 100 scale), Corn: 90
[2]; 31 g ai/ha Preemergence
  Plant response rating (0 to 100 scale), Kochia: 80
[2]; 125 g ai/ha Preemergence
  Plant response rating (0 to 100 scale), Kochia: 100
[3]; 31 g ai/ha Postemergence
  Ragweed plant response rating: 70
[3]; 125 g ai/ha Postemergence
  Plant response rating (0 to 100 scale), Ragweed: 90
[4]
  Plant response rating, Barnyardgrass: 85
[5]; 31 g ai/ha Preemergence
  Plant response rating (0 to 100 scale), Goosegrass: 100
[5]; 125 g ai/ha Preemergence
  Plant response rating (0 to 100 scale), Goosegrass: 100
[6]; 31 g ai/ha Postemergence
  Foxtail, Giant plant response rating: 90
[6]; 125 g ai/ha Postemergence
  Plant response rating (0 to 100 scale), Foxtail, Giant: 90
[7]
  Horseweed plant response rating: 70
  Plant response rating (0 to 100 scale), Horseweed: 100
[8]; 31 g ai/ha Postemergence
  Kochia plant response rating: 80
[8]; 125 g ai/ha Postemergence
  Plant response rating (0 to 100 scale), Kochia: 90
[9]
  Plant response rating, Rice: 15

## Cc1c(NS(=O)(=O)C(F)(F)F)cc(N2CCC(OC3CCC3)C2=O)c(C)c1F (stereo not shown) [Compound 25]
[1]; 31 g ai/ha Preemergence
  Plant response rating (0 to 100 scale), Corn: 30
[1]; 125 g ai/ha Preemergence
  Plant response rating (0 to 100 scale), Corn: 90
[2]; 31 g ai/ha Preemergence
  Plant response rating (0 to 100 scale), Kochia: 70
[2]; 125 g ai/ha Preemergence
  Plant response rating (0 to 100 scale), Kochia: 100
[3]; 31 g ai/ha Postemergence
  Ragweed plant response rating: 60
[3]; 125 g ai/ha Postemergence
  Ragweed plant response rating: 80
[4]
  Plant response rating, Barnyardgrass: 0
[5]; 31 g ai/ha Preemergence
  Plant response rating (0 to 100 scale), Goosegrass: 90
[5]; 125 g ai/ha Preemergence
  Plant response rating (0 to 100 scale), Goosegrass: 100
[6]; 31 g ai/ha Postemergence
  Foxtail, Giant plant response rating: 30
[6]; 125 g ai/ha Postemergence
  Plant response rating (0 to 100 scale), Foxtail, Giant: 30
[8]; 31 g ai/ha Postemergence
  Kochia plant response rating: 60
[8]; 125 g ai/ha Postemergence
  Plant response rating (0 to 100 scale), Kochia: 90
[9]
  Plant response rating, Rice: 15

## Cc1c(NS(=O)(=O)C(F)(F)F)cc(N2CCC(OC3CC3)C2=O)c(C)c1F (stereo not shown) [Compound 26]
[1]; 31 g ai/ha Preemergence
  Plant response rating (0 to 100 scale), Corn: 60
[1]; 125 g ai/ha Preemergence
  Plant response rating (0 to 100 scale), Corn: 90
[2]; 31 g ai/ha Preemergence
  Plant response rating (0 to 100 scale), Kochia: 100
[2]; 125 g ai/ha Preemergence
  Plant response rating (0 to 100 scale), Kochia: 100
[3]; 31 g ai/ha Postemergence
  Ragweed plant response rating: 60
[3]; 125 g ai/ha Postemergence
  Ragweed plant response rating: 80
[4]
  Plant response rating, Barnyardgrass: 30
[5]; 31 g ai/ha Preemergence
  Plant response rating (0 to 100 scale), Goosegrass: 90
[5]; 125 g ai/ha Preemergence
  Plant response rating (0 to 100 scale), Goosegrass: 100
[6]; 31 g ai/ha Postemergence
  Foxtail, Giant plant response rating: 40
[6]; 125 g ai/ha Postemergence
  Plant response rating (0 to 100 scale), Foxtail, Giant: 90
[8]; 31 g ai/ha Postemergence
  Kochia plant response rating: 70
[8]; 125 g ai/ha Postemergence
  Plant response rating (0 to 100 scale), Kochia: 90
[9]
  Plant response rating, Rice: 65

## Cc1c(N2CCC(OC3CCC3)C2=O)cc(N(COC(=O)C(C)(C)C)S(=O)(=O)C(F)(F)F)c(C)c1F (stereo not shown) [Compound 28]
[1]; 31 g ai/ha Preemergence
  Plant response rating (0 to 100 scale), Corn: 0
[1]; 125 g ai/ha Preemergence
  Plant response rating (0 to 100 scale), Corn: 20
[2]; 31 g ai/ha Preemergence
  Plant response rating (0 to 100 scale), Kochia: 20
[2]; 125 g ai/ha Preemergence
  Plant response rating (0 to 100 scale), Kochia: 90
[3]; 31 g ai/ha Postemergence
  Ragweed plant response rating: 80
[3]; 125 g ai/ha Postemergence
  Ragweed plant response rating: 80
[4]
  Plant response rating, Barnyardgrass: 60
[5]; 31 g ai/ha Preemergence
  Plant response rating (0 to 100 scale), Goosegrass: 70
[5]; 125 g ai/ha Preemergence
  Plant response rating (0 to 100 scale), Goosegrass: 100
[6]; 31 g ai/ha Postemergence
  Foxtail, Giant plant response rating: 30
[6]; 125 g ai/ha Postemergence
  Plant response rating (0 to 100 scale), Foxtail, Giant: 70
[8]; 31 g ai/ha Postemergence
  Kochia plant response rating: 50
[8]; 125 g ai/ha Postemergence
  Plant response rating (0 to 100 scale), Kochia: 80
[9]
  Plant response rating, Rice: 30

## Cc1c(N2CCC(OC3CC3)C2=O)cc(N(C(=O)OCC(C)C)S(=O)(=O)C(F)(F)F)c(C)c1C (stereo not shown) [Compound 50]
[1]; 31 g ai/ha Preemergence
  Plant response rating (0 to 100 scale), Corn: 10
[1]; 125 g ai/ha Preemergence
  Plant response rating (0 to 100 scale), Corn: 90
[2]; 31 g ai/ha Preemergence
  Plant response rating (0 to 100 scale), Kochia: 20
[2]; 125 g ai/ha Preemergence
  Plant response rating (0 to 100 scale), Kochia: 100
[3]; 31 g ai/ha Postemergence
  Ragweed plant response rating: 70
[3]; 125 g ai/ha Postemergence
  Ragweed plant response rating: 80
[4]
  Plant response rating, Barnyardgrass: 90
[5]; 31 g ai/ha Preemergence
  Plant response rating (0 to 100 scale), Goosegrass: 90
[5]; 125 g ai/ha Preemergence
  Plant response rating (0 to 100 scale), Goosegrass: 100
[6]; 31 g ai/ha Postemergence
  Foxtail, Giant plant response rating: 50
[6]; 125 g ai/ha Postemergence
  Foxtail, Giant plant response rating: 80
[8]; 31 g ai/ha Postemergence
  Kochia plant response rating: 20
[8]; 125 g ai/ha Postemergence
  Kochia plant response rating: 70
[9]
  Plant response rating, Rice: 20
